Paper PMC7554340, “A Novel Dual-Targeted α-Helical Peptide With Potent Antifungal Activity Against Fluconazole-Resistant Candida albicans Clinical Isolates” (Frontiers in Microbiology, 2020)
In brackets after ≈: the same amount, converted by molar mass. Like-named read-outs stand apart in the source and are kept apart here. No end group written: not given here.

Key:
[1] = tested on: C. parapsilosis cgmcc 2.3989; test: Antifungal activity assay (broth microdilution, MIC/MFC); type: cell-based, Candida parapsilosis; details: for MFC: 50 μl of MIC wells plated on YPD agar, 28°C, lowest concentration that completely killed fungal cells, consensus of at least three independent experiments
[2] = tested on: C. albicans sp3902; test: microbe, parasite or virus in culture; details: Candida albicans, SP3902, 48 h
[3] = tested on: C. albicans 56214; test: microbe, parasite or virus in culture; details: Candida albicans, 56214, 48 h
[4] = tested on: C. albicans 56452; test: microbe, parasite or virus in culture; details: Candida albicans, 56452, 48 h
[5] = tested on: C. albicans cgmcc 2.2086; test: Antifungal activity assay (broth microdilution, MIC/MFC); type: cell-based, Candida albicans; details: for MFC: 50 μl of MIC wells plated on YPD agar, 28°C, lowest concentration that completely killed fungal cells, consensus of at least three independent experiments
[6] = tested on: C. tropicalis cgmcc 2.1975; test: as above; type: cell-based, Candida tropicalis; details: for MFC: 50 μl of MIC wells plated on YPD agar, 28°C, lowest concentration that completely killed fungal cells, consensus of at least three independent experiments
[7] = tested on: C. albicans sp3931; test: microbe, parasite or virus in culture; details: Candida albicans, SP3931, 48 h
[8] = tested on: C. albicans sp3903; test: microbe, parasite or virus in culture; details: Candida albicans, SP3903, 48 h
[9] = tested on: C. albicans 58288; test: microbe, parasite or virus in culture; details: Candida albicans, 58288, 48 h
[10] = tested on: C. albicans 17546; test: microbe, parasite or virus in culture; details: Candida albicans, 17546, 48 h
[11] = tested on: C. albicans sp3876; test: microbe, parasite or virus in culture; details: Candida albicans, SP3876, 48 h
[12] = tested on: C. albicans 14936; test: microbe, parasite or virus in culture; details: Candida albicans, 14936, 48 h
[13] = tested on: C. albicans 58288; details: 58288, 48 h; for MIC: pH 7
[14] = tested on: PMEC cells
[15] = tested on: C. albicans 14936; details: 14936, 48 h; for MIC: pH 7
[16] = tested on: human erythrocytes; details: for HC10: red cells of human, 1 h
[17] = tested on: C. albicans sp3876; details: sp3876, 48 h; for MIC: pH 7
[18] = tested on: IPEC-J2 and PMEC cells
[19] = tested on: C. albicans sp3902; details: sp3902, 48 h; for MIC: pH 7
[20] = tested on: C. albicans 17546; details: 17546, 48 h; for MIC: pH 7
[21] = tested on: C. albicans 56452; details: 56452, 48 h; for MIC: pH 7
[22] = tested on: C. albicans 56214; details: 56214, 48 h; for MIC: pH 7
[23] = tested on: IPEC-J2 cells
[24] = tested on: C. albicans sp3931; details: sp3931, 48 h; for MIC: pH 7
[25] = tested on: C. albicans sp3903; details: sp3903, 48 h; for MIC: pH 7
[26] = tested on: IPEC-J2 and PMEC cells; test: Cytotoxicity MTT assay, statements for both cell lines; details: 24 h
[27] = PMEC cells, MTT, 24 h treatment, 1-64 μM, probit regression
[28] = IPEC-J2 cells, MTT, 24 h treatment, 1-64 μM, probit regression

C[C@@H]1[C@H](O)[C@@H](C)/C=C/C=C/C=C/C=C/C=C/C=C/C=C/[C@H](O[C@@H]2O[C@H](C)[C@@H](O)[C@H](N)[C@@H]2O)C[C@@H]2O[C@](O)(C[C@@H](O)C[C@@H](O)[C@H](O)CC[C@@H](O)C[C@@H](O)CC(=O)O[C@H]1C)C[C@H](O)[C@H]2C(=O)O [AmB, amphotericin B]
MFC ([1]; Lodderomyces parapsilosis, CGMCC2, 48 h): 2 µM (≈ 1.85 µg/mL)
MIC ([1]; Lodderomyces parapsilosis, CGMCC2, broth microdilution, RPMI-MOPS pH 7.0, 28°C, 48 h, lowest concentration inhibiting 99% of growth (A492)): 2 µM (≈ 1.85 µg/mL)
MFC [2]: 1 µM (≈ 0.924 µg/mL)
MIC ([2]; pH 7): 0.25 µM (≈ 0.231 µg/mL)
MFC [3]: 2 µM (≈ 1.85 µg/mL)
MIC ([3]; pH 7): 1 µM (≈ 0.924 µg/mL)
MFC [4]: 2 µM (≈ 1.85 µg/mL)
MIC ([4]; pH 7): 1 µM (≈ 0.924 µg/mL)
MFC ([5]; Candida albicans, CGMCC2, 48 h): 1 µM (≈ 0.924 µg/mL)
MIC ([5]; Candida albicans, CGMCC2, broth microdilution, RPMI-MOPS pH 7.0, 28°C, 48 h, lowest concentration inhibiting 99% of growth (A492)): 1 µM (≈ 0.924 µg/mL)
MFC ([6]; Candida tropicalis, CGMCC2, 48 h): 2 µM (≈ 1.85 µg/mL)
MIC ([6]; Candida tropicalis, CGMCC2, broth microdilution, RPMI-MOPS pH 7.0, 28°C, 48 h, lowest concentration inhibiting 99% of growth (A492)): 1 µM (≈ 0.924 µg/mL)
MFC [7]: 1 µM (≈ 0.924 µg/mL)
MIC ([7]; pH 7): 0.25 µM (≈ 0.231 µg/mL)
MFC [8]: 1 µM (≈ 0.924 µg/mL)
MIC ([8]; pH 7): 0.13 µM (≈ 0.12 µg/mL)
MFC [9]: 1 µM (≈ 0.924 µg/mL)
MIC ([9]; pH 7): 0.5 µM (≈ 0.462 µg/mL)
MFC [10]: 1 µM (≈ 0.924 µg/mL)
MIC ([10]; pH 7): 0.25 µM (≈ 0.231 µg/mL)
MFC [11]: 0.5 µM (≈ 0.462 µg/mL)
MIC ([11]; pH 7): 0.25 µM (≈ 0.231 µg/mL)
MFC [12]: 0.5 µM (≈ 0.462 µg/mL)
MIC ([12]; pH 7): 0.25 µM (≈ 0.231 µg/mL)

KIGKFLLFKGIKKIGKFL-NH2 [KF3]
MFC ([1]; 48 h): 32 µM
MIC ([1]; cgmcc 2.3989, 48 h, pH 7): 32 µM
MFC [13]: 32 µM
MIC [13]: 32 µM
IC50 ([14]; 24 h): 60 µM
MFC [15]: 64 µM
MIC [15]: 64 µM
HC10 [16]: >64 µM
MFC [17]: 64 µM
MIC [17]: 64 µM
cytotoxicity at 64 μM (in words) [18]: sharp rise in cytotoxicity
MFC [19]: 16 µM
MIC [19]: 16 µM
MFC [20]: 64 µM
MIC [20]: 64 µM
MFC [21]: 16 µM
MIC [21]: 16 µM
MFC [22]: 16 µM
MIC [22]: 16 µM
IC50 ([23]; 24 h): 48.5 µM
MFC ([5]; 48 h): 32 µM
MIC ([5]; cgmcc 2.2086, 48 h, pH 7): 32 µM
MFC ([6]; 48 h): 8 µM
MIC ([6]; cgmcc 2.1975, 48 h, pH 7): 8 µM
MFC [24]: 32 µM
MIC [24]: 32 µM
MFC [25]: 32 µM
MIC [25]: 32 µM

KIGKVL-NH2 [KV]
MFC ([1]; 48 h): >64 µM
MIC ([1]; cgmcc 2.3989, 48 h, pH 7): >64 µM
MFC [13]: >64 µM
MIC [13]: >64 µM
MFC [15]: >64 µM
MIC [15]: >64 µM
MFC [17]: >64 µM
MIC [17]: >64 µM
MFC [19]: >64 µM
MIC [19]: >64 µM
MFC [20]: >64 µM
MIC [20]: >64 µM
MFC [21]: >64 µM
MIC [21]: >64 µM
MFC [22]: >64 µM
MIC [22]: >64 µM
MFC ([5]; 48 h): >64 µM
MIC ([5]; cgmcc 2.2086, 48 h, pH 7): >64 µM
MFC ([6]; 48 h): >64 µM
MIC ([6]; cgmcc 2.1975, 48 h, pH 7): >64 µM
MFC [24]: >64 µM
MIC [24]: >64 µM
MFC [25]: >64 µM
MIC [25]: >64 µM

KIGKVLLVKGIK-NH2 [KV2]
MFC ([1]; 48 h): >64 µM
MIC ([1]; cgmcc 2.3989, 48 h, pH 7): >64 µM
MFC [13]: >64 µM
MIC [13]: >64 µM
MFC [15]: >64 µM
MIC [15]: >64 µM
MFC [17]: >64 µM
MIC [17]: >64 µM
MFC [19]: >64 µM
MIC [19]: >64 µM
MFC [20]: >64 µM
MIC [20]: >64 µM
MFC [21]: >64 µM
MIC [21]: >64 µM
MFC [22]: >64 µM
MIC [22]: >64 µM
MFC ([5]; 48 h): >64 µM
MIC ([5]; cgmcc 2.2086, 48 h, pH 7): >64 µM
MFC ([6]; 48 h): >64 µM
MIC ([6]; cgmcc 2.1975, 48 h, pH 7): >64 µM
MFC [24]: >64 µM
MIC [24]: >64 µM
MFC [25]: >64 µM
MIC [25]: >64 µM

KIGKWLLWKGIKKIGKWL-NH2 [KW3]
MFC ([1]; 48 h): 8 µM
MIC ([1]; cgmcc 2.3989, 48 h, pH 7): 8 µM
MFC [13]: 8 µM
MIC [13]: 8 µM
IC50 [14, 27]: 10.3 µM
concentration at which statistically significant cytotoxic effects started [26]: 4 µM
MFC [15]: 8 µM
MIC [15]: 8 µM
hemolytic activity (in words) [16]: strong hemolytic activities
HC10 [16]: 2.69 µM
MFC [17]: 8 µM
MIC [17]: 8 µM
MFC [19]: 2 µM
MIC [19]: 2 µM
MFC [20]: 8 µM
MIC [20]: 8 µM
MFC [21]: 4 µM
MIC [21]: 4 µM
MFC [22]: 8 µM
MIC [22]: 4 µM
IC50 [23, 28]: 6.84 µM
MFC ([5]; 48 h): 8 µM
MIC ([5]; cgmcc 2.2086, 48 h, pH 7): 4 µM
MFC ([6]; 48 h): 2 µM
MIC ([6]; cgmcc 2.1975, 48 h, pH 7): 2 µM
MFC [24]: 8 µM
MIC [24]: 8 µM
MFC [25]: 8 µM
MIC [25]: 4 µM

RIGRVLLVRGIRRIGRVL-NH2 [RV3]
MFC ([1]; 48 h): 32 µM
MIC ([1]; cgmcc 2.3989, 48 h, pH 7): 16 µM
MFC [13]: 32 µM
MIC [13]: 32 µM
IC50 [14, 27]: > 64 µM
cytotoxic effects (in words) ([26]; 1-64 μM): negligible cytotoxic effects
MFC [15]: 32 µM
MIC [15]: 32 µM
HC10 [16]: >64 µM
MFC [17]: 32 µM
MIC [17]: 32 µM
MFC [19]: 32 µM
MIC [19]: 32 µM
MFC [20]: 64 µM
MIC [20]: 64 µM
MFC [21]: 16 µM
MIC [21]: 16 µM
MFC [22]: 32 µM
MIC [22]: 16 µM
IC50 [23, 28]: > 64 µM
MFC ([5]; 48 h): 32 µM
MIC ([5]; cgmcc 2.2086, 48 h, pH 7): 32 µM
MFC ([6]; 48 h): 16 µM
MIC ([6]; cgmcc 2.1975, 48 h, pH 7): 8 µM
MFC [24]: 32 µM
MIC [24]: 32 µM
MFC [25]: 32 µM
MIC [25]: 32 µM

RIGRWLLWRGIRRIGRWL-NH2 [RW3]
MFC ([1]; 48 h): 4 µM
MIC ([1]; cgmcc 2.3989, 48 h, pH 7): 4 µM
MFC [13]: 8 µM
MIC [13]: 4 µM
IC50 [14, 27]: 22.3 µM
concentration at which statistically significant cytotoxic effects started [26]: 8 µM
MFC [15]: 4 µM
MIC [15]: 4 µM
hemolytic activity (in words) [16]: strong hemolytic activities
HC10 [16]: 3.81 µM
MFC [17]: 4 µM
MIC [17]: 4 µM
MFC [19]: 2 µM
MIC [19]: 2 µM
MFC [20]: 8 µM
MIC [20]: 8 µM
MFC [21]: 4 µM
MIC [21]: 4 µM
MFC [22]: 2 µM
MIC [22]: 2 µM
IC50 [23, 28]: 14.8 µM
MFC ([5]; 48 h): 4 µM
MIC ([5]; cgmcc 2.2086, 48 h, pH 7): 4 µM
MFC ([6]; 48 h): 2 µM
MIC ([6]; cgmcc 2.1975, 48 h, pH 7): 2 µM
MFC [24]: 4 µM
MIC [24]: 4 µM
MFC [25]: 8 µM
MIC [25]: 2 µM
